The values that follow come from US10561658B2, “Thieno- and pyrrolopyrimidine analogues as anticancer agents and methods of use thereof” (UNIVERSITY OF MARYLAND, BALTIMORE COUNTY, priority 2015, dated 2020).

For series [1], the system named is susceptible fungal strains. In words: Antifungal MIC95 comparison on susceptible fungal strains. Type of series: cell-based. Particulars: MIC95, Table 3 fungal strains. The procedure: (§1) Evaluation of antimicrobial activity in vitro. Compounds were tested against the following panel of bacteria and fungi purchased from the American Type Culture Collection (ATCC). Briefly, bacteria were grown to mid-log phase, diluted with fresh medium to an optical density at 600 nm (OD600) of 0.030-0.060 and then diluted again 1:10. This suspension (195 μL) was added to wells in a 96 well microtiter plate (Sarstedt) and 5 μL of compound dissolved in DMSO was added to give a final concentration of 100-0.1 μM at 2.5% DMSO by volume. A DMSO negative control and standard antibiotic positive controls were included in each plate. All compounds were tested in triplicate for each concentration. Plates were sealed with parafilm, placed in a Ziploc bag to prevent evaporation, and incubated at 30° C. (fungi) or 37° C. (bacteria) for 16-20 hours (48 hours for C. neoformans). The OD600 values for each well were determined with a plate reader (Biotek, EL800) and the data were standardized to the DMSO control wells after subtracting the background from blank medium. Initial single concentrations were tested at 100 μM and active compounds were further tested with at least nine concentrations for a full dose response. Dose response curves were generated using GraphPad Prism 5 software and used to determine the MIC95 concentrations (minimal concentration that inhibits 95% of growth). […]

For series [2], the system named is MDA-MB-231 cells. The series can be described thus: MTT cytotoxicity, MDA-MB-231. In kind it is cell-based. The note with it: Homo sapiens; MDA-MB-231, cell viability (MTT), 48 h; read-out: IC80 (equitoxic dose). As to the method:
Human metastatic breast cancer MDA-MB-231 cells were obtained from the American Type Culture Collection (ATCC) (Rockville, Md.) and maintained in Dulbecco's Modified Eagle's Medium (DMEM) containing 10% fetal bovine serum (FBS) without antibiotics at 37° C. in a humidified, CO2-controlled incubator. The cytotoxicity of compounds 1 and 2 was assessed by reduction of 3-(4, 5-dimethylthiazol-2-yl)-2,5-diphenyltetrazolium bromide (MTT). MDA-MB-231 cells were seeded in 96-well plates at 5×10^3 cells per well and treated with a range of drug concentrations. After 48 hours, cell viability was measured using the MTT Cell Proliferation Assay kit (ATCC) according to the manufacturer's instructions. Percent cell viability was plotted as a function of drug concentrations and analyzed using a sigmoidal dose response function with PRISM v3.03 software (GraphPad) to resolve drug concentrations yielding 50% cell death (IC50). The cell cycle distributions of MDA-MB-231 cells treated with compounds 1 or 2 were analyzed using propidium iodide staining and flow cytometry. 2×10^6 cells were seeded in 100 mm dishes and treated with compounds 1 or 2 at the IC80 values determined by cell viability assays or an equivalent volume of DMSO. 48 h following treatment the cells were collected, fixed, and stained with propidium iodide (Sigma Aldrich) immediately before analysis by flow cytometry.

Series [3] relates to Enterococcus faecalis (FRE) ATCC 51299. The series can be described thus: Antimicrobial growth inhibition, E. faecalis. In kind it is cell-based. The note with it: ATCC51299; Enterococcus faecalis ATCC 51299, 100 μM. The procedure:
as §1

Series [4] has as its system human lymphocytic CEM cells. The series can be described thus: Cell proliferation assay, CEM. In kind it is cell-based. The note with it: CCRF-CEM, 72 h proliferation, Coulter counter. The procedure: (§2) Cell proliferation assays for several of the compounds were performed on L1210, a mouse lymphocytic leukemia cell line; CCRF-CEM [39] an acute lymphoblastic leukemia cell line; and HeLa, a human cancer cell line derived from a human cervical adenocarcinoma. Murine Leukemia L1210, human lymphocytic CEM and human cervix carcinoma HeLa cells were obtained from the American Type Culture Collection (ATCC) (Rockville, Md.). All assays were performed in 96-well microtiter plates. To each well were added (5-7.5)×10^4 tumor cells and a given amount of the test compound. The cells were allowed to proliferate for 48 h (murine leukemia L1210 cells) or 72 h (human lymphocytic CEM and human cervix carcinoma HeLa cells) at 37° C. in a humidified CO2-controlled atmosphere. At the end of the incubation period, the cells were counted in a Coulter counter. The IC50 (50% inhibitory concentration) was defined as the concentration of the compound that inhibited cell proliferation by 50%. […] Presence of C7 iodine on the 2,4-dichloro pyrrolo[3,2-d] (compound 20) increases the anticancer activity by a factor of 5 when compared to compound 19. […] This alludes to a) importance of C7-I towards activity against cancer cell lines for the 2,4-O-benzylated analogues (15 and 16).

Series [5] has as its system MDA-MB-231 cells. In words: Apoptosis (annexin V), MDA-MB-231. Type of series: cell-based, human. Particulars: MDA-MB-231, tested concentration. The procedure: Cell-cycle and apoptosis studies were conducted in MDA-MB-231 cells. Cell-cycle analysis of compound 19 at 15 μM concentration lead to arrest of 60% cells in G2/M stage. Similarly, at 1.75 μM concentration, compound 20 arrested 30% of cells in G2/M stage. […] To evaluate the possible mechanism for arrest of cell proliferation, cell-cycle distribution was measured using propidium iodide staining and flow cytometry. […] There are several possibilities that could account for this, including: (i) that cell lysis occurs rapidly following induction of apoptosis, preventing significant accumulation of annexin V-positive bodies, or (ii) that a distinct cell death pathway is triggered by compound 19.

Series [6] concerns human cervix carcinoma HeLa cells. The series can be described thus: Cell proliferation assay, HeLa. In kind it is cell-based. The note with it: 72 h proliferation, Coulter counter. As to the method: as §2
The test system of series [7] is melanoma tumor. The series can be described thus: In vivo activity screen, intra-tumor injection. Also noted: species or system mice. Particulars: intra-tumor injection 0.01 mg/100 mm^3 tumor, 5 days on/2 days off, 21 days. From the text:
The asterisk denotes […] when compared to the vehicle only (n=6-10 mice). Melanoma is viewed as resistant to nucleoside analogues, since traditional FDA-approved nucleosides have minimal effects on growth inhibition (100-90% growth percent) and apoptosis (5-10% cell death).

For series [8], the target named is T1, JAK2 JH1 JH2 V617F (Homo sapiens, UniProt O60674, V617F).
T1 construct: JAK2 JH1 JH2 V617F
T1 sequence (O60674 532-1132 V617F limits assumed): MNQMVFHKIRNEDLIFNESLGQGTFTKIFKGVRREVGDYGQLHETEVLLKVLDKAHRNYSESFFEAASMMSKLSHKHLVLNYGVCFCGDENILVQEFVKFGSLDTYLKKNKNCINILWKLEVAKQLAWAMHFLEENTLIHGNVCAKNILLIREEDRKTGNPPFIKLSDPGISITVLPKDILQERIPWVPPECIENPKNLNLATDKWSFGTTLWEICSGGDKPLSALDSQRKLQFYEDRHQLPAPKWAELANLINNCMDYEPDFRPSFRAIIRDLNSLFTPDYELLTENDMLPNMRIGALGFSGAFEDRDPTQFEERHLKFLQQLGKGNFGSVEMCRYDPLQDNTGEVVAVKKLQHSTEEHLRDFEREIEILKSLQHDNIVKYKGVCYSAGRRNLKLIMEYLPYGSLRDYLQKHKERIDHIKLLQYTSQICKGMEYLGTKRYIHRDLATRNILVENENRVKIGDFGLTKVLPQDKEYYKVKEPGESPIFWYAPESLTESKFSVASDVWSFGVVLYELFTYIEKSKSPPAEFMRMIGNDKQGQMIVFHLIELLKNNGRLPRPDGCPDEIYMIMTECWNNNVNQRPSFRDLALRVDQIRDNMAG
In words: Select Screen kinase profiling. In kind it is biochemical. From the text: (§3) The thieno[3,2-d]pyrimidine scaffold has been used extensively in the design of kinase inhibitors.

Series [9] has as its target JAK2 (Homo sapiens, UniProt O60674). The series can be described thus: Select Screen kinase profiling. Type of series: biochemical.
Excerpt: as §3

The target in series [10] is JAK1 (Homo sapiens, UniProt P23458). In words: Select Screen kinase profiling. In kind it is biochemical.
Chain of JAK1 (P23458 whole entry): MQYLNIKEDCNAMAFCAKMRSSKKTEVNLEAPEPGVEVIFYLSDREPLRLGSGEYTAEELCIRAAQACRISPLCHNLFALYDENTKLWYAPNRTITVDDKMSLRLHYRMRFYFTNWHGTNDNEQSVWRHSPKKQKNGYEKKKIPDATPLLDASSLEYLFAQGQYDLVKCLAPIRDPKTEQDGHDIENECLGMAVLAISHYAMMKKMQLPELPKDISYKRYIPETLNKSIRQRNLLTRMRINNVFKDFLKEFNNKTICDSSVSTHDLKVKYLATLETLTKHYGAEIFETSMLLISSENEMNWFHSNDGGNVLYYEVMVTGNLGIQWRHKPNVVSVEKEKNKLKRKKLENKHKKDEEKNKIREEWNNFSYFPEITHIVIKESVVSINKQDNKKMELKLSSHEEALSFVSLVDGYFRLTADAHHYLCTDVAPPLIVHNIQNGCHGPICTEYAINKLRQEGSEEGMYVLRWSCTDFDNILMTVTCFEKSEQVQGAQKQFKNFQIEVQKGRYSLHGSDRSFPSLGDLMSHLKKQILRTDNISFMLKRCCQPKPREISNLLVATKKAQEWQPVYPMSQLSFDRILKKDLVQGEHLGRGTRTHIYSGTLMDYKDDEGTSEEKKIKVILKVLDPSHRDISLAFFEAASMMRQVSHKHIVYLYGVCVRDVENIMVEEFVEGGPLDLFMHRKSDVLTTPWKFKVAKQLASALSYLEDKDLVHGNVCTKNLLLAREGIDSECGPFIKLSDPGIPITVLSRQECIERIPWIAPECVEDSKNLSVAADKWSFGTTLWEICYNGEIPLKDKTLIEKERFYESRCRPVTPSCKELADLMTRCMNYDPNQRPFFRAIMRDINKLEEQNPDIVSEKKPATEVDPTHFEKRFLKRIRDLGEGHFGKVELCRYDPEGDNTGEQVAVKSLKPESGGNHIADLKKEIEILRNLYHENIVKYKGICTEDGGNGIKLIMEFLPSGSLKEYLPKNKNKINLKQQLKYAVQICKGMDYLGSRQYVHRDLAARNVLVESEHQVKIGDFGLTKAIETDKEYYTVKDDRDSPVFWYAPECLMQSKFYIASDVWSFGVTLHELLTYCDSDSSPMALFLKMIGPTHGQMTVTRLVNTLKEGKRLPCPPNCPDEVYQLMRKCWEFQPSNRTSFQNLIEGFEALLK
Excerpt: as §3

Series [11] in a line: In vivo systemic (IP) toxicity, body weight. The source says:
When dosing was completed, the mice were monitored for 14 days to determine any toxicity. In mice the best indicator of toxicity is weight loss.

In general, IC80 refers to the point of the concentration-response curve where the effect stands at 80%. For orientation: inhibition means how much of the control response was suppressed. Read a high inhibition as a strong effect. A word on the IC50: it is the midpoint of a concentration-inhibition curve. Higher therefore signals a need for much substance.

Chain of JAK2 (O60674 whole entry): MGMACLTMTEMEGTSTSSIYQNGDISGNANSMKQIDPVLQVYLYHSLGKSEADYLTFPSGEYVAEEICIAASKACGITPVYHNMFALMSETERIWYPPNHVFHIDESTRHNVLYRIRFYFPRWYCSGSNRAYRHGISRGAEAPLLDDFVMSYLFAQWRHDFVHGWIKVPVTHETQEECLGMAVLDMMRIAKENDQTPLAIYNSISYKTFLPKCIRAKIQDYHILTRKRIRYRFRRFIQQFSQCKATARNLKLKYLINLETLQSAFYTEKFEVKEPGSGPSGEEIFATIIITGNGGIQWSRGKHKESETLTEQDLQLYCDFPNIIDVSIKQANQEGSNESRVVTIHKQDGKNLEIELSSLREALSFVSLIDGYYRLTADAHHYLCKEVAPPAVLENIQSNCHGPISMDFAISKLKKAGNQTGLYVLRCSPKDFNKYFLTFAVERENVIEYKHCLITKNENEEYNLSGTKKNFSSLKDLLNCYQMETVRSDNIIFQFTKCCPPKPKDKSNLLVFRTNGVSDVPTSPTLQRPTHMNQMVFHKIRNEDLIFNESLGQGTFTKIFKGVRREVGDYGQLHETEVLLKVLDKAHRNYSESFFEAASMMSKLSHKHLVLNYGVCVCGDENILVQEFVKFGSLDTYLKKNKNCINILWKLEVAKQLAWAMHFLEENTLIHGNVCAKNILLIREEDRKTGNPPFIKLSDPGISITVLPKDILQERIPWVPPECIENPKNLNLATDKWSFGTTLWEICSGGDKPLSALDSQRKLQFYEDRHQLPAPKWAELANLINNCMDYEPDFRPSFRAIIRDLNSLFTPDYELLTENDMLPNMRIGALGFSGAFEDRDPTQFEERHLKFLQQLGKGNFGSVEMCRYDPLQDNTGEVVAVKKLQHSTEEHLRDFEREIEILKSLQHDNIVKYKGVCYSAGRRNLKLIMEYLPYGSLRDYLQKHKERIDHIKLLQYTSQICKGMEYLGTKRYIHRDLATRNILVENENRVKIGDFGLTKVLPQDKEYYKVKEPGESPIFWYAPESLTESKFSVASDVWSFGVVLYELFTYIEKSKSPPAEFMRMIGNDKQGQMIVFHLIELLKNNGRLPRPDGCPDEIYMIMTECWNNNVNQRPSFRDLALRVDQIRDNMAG

Regarding `Clc1nc(Cl)c2scc(Br)c2n1` [Compound 2, 7-Bromo-2,4-dichlorothieno[3,2-d]pyrimidine], in series [1], the “times more potent than compound 1” value was 2-5. In series [2], the 80% effect concentration (IC80) came out at 8 µM. Besides, the inhibition at 100 µM in series [3] was < 43%.

For the compound `Clc1nc(Cl)c2[nH]ccc2n1` [Compound 19, 2,4-Dichloropyrrolo[3,2-d]pyrimidine], the IC50 was 25 µM in [4] and 19 µM in series [6]. The “annexin V-positive cells” value in series [5] was “modest (although statistically significant) increase”.

Regarding `Clc1nc(Cl)c2sccc2n1` [Compound 1, 2,4-Dichlorothieno[3,2-d]pyrimidine], the “anti-cancer activity (tumor responsiveness) in vivo” value in [7] is reported as “comparable to the current standard of care, temozolomide”. For the same compound, the IC80 in series [2] is 15 µM. The inhibition at 5 µM in [8], in series [9] and in series [10] was < 40% each time. In addition, the inhibition at 100 µM in [3] is < 43%. For the same compound, the body weight entry in series [11] (20 mg/kg IP, 5 days) is recorded as “maintaining their weight”. In series [11] (daily IP doses 5 consecutive days, monitored 14 days), the “toxicity when administered systemically” value is “non-toxic”.
